According to patent publication US9370515B2, “Mixed lineage kinase inhibitors and method of treatments” (CALIFIA BIO, INC., priority 2013, dated 2016):
pIC50: −log10 of the molar value.

Assays:
[1] = Blood brain barrier penetration: standard murine pharmacokinetic model, plasma and brain concentrations; assay type: in vivo; conditions: mouse; brain concentration 3 hrs after single IV injection 10 mg/kg, CL57 BL/6 mice; read-out: Cbrain 3 hrs
Text: Compounds disclosed herein may be evaluated in pharmacokinetic assays and models to determine absorption, distribution, metabolism, and excretion parameters. The choice and tailoring of in vitro and ex vivo assays and in vivo models will vary according to the route of administration/formulation, indication under study, properties of test compounds, etc., as well as according to such factors as costs, availability of technology and resources, etc. Such parameters are well known in the fields of pharmacology and drug development. It is within the capacity of one skilled in the art to design and carry out, such work, or to outsource it to a capable third party.
Several compounds disclosed herein were evaluated in a standard murine pharmacokinetic model. […] For ease of analysis compounds were dissolved in 5% DMSO, 40% PEG400, and […] to yield a nominal concentration of 2 mg/mL for intravenous administration. Compounds were administered via a single intravenous (IV) injection in CL57 BL/6 mice at 10 mg/kg in DMSO/PEG400/Saline solution. Three mice in each group were used for blood and brain collection at each time point. Blood samples (300 μL) were collected via the retro-orbital vein predose and at 30, 60 and 180 minutes postdose. Blood samples were placed into tubes containing sodium heparin and centrifuged under refrigerated conditions at 8000 rpm for 6 minutes to separate plasma from the samples. The brain of each animal was collected after the final blood collection. The whole tissue was harvested, excised and rinsed by saline, dried by filter paper, and then placed into one tube per tissue per animal. All samples were stored at −20° C. until bioanalysis. Compound concentrations in plasma and brain homogenate were determined using a high performance liquid chromatography/mass spectrometry (HPLC/MS/MS) methods.

[2] = target: MLK-3 (Homo sapiens, UniProt Q16584); test: Biochemical assay for the inhibition of kinase activity for MLK-3 (33P-ATP, HOTSPOT filter binding); conditions: activated MLK-3 20 nM, ATP 50 μM, myelin basic protein 20 μM, 20 minutes room temperature
MLK-3, sequence (Q16584 whole entry): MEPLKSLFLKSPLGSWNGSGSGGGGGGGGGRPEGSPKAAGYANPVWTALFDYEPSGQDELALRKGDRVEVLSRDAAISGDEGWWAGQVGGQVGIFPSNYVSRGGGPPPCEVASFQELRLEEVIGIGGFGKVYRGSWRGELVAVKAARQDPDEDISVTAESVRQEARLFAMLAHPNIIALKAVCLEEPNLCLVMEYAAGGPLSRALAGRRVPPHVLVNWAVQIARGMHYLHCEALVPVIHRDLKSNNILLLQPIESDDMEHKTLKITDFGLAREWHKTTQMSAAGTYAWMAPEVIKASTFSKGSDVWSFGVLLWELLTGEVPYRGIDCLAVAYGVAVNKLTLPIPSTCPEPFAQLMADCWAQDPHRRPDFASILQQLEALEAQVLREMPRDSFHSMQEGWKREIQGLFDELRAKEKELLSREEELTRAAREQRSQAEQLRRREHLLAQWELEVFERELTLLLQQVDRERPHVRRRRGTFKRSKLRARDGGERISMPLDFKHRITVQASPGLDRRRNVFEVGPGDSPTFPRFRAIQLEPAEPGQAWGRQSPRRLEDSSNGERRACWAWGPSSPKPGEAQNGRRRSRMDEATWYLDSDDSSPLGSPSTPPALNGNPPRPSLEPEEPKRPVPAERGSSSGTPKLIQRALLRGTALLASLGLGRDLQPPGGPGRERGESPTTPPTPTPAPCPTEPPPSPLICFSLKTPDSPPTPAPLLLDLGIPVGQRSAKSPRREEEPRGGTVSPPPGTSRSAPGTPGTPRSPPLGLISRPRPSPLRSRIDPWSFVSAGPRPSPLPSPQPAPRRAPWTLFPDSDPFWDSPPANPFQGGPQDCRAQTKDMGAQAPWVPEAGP
Outline: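 Activated MLK-3 (20 nM) with myelin basic protein (20 μM) in 20 mM Hepes pH 7.5, MgCl2, EGTA, Brij35, BSA, Na3VO4, DTT, 1% DMSO. Started with 33P-ATP at 50 μM ATP, 20 min at room temperature; % activity by HOTSPOT filter binding.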

[3] = target: T1, diverse set of kinases (Homo sapiens, UniProt P06213); test: Protein kinase selectivity: IC50 against a diverse set of kinases, compared with URMC-099; assay type: biochemical; conditions: kinase IR
T1 construct: IC50 IR; other: kinase IR
T1 sequence (P06213 whole entry): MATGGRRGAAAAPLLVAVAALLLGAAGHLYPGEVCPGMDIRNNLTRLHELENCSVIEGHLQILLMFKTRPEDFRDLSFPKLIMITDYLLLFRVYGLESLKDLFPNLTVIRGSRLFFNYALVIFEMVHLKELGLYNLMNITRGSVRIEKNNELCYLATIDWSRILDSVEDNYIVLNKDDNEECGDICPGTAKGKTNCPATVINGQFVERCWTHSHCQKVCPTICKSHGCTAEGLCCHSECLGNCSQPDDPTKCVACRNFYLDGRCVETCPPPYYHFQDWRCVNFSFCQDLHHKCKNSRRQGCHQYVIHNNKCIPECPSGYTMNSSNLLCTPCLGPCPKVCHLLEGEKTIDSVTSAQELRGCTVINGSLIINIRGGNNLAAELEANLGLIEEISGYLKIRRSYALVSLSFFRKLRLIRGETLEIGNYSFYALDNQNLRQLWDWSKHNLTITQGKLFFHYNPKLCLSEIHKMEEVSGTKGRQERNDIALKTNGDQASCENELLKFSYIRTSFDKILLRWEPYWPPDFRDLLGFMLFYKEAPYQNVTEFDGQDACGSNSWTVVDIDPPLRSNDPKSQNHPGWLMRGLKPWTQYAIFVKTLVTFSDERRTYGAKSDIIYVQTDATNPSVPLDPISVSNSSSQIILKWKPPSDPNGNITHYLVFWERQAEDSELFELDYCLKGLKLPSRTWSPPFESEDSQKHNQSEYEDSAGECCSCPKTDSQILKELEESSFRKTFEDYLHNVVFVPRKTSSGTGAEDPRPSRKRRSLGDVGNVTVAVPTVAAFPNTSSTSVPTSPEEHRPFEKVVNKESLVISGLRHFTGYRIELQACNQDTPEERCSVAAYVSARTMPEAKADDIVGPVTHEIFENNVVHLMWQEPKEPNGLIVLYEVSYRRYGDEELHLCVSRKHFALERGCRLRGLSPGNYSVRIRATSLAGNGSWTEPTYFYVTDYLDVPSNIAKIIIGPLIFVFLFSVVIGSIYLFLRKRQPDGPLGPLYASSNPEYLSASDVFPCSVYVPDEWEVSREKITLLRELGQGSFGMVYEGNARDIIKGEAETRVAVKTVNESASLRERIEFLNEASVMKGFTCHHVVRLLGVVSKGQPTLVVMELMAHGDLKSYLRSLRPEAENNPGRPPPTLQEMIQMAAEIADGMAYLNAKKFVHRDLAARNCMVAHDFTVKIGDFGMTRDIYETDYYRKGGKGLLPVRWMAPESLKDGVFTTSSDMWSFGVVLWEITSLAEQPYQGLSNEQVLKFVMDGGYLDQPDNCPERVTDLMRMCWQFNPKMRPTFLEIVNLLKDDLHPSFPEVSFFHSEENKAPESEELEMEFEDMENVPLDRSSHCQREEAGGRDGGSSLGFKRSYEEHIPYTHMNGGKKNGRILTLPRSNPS
Text: (§1) Protein Kinase Selectivity: MLK-3 inhibitors previously reported in the literature are somewhat promiscuous and inhibit a large number of serine and threonine protein kinases. Compounds of the present invention that show potent inhibition on MLK-3 are very specific for MLK family kinases. […] Journal of Medicinal Chemistry, 2013.

[4] = target: T2, diverse set of kinases (Homo sapiens, UniProt O15111); test: as above; assay type: biochemical; conditions: kinase IKKa
T2 construct: IC50 IKKa; other: kinase IKKa
T2 sequence (O15111 1-745): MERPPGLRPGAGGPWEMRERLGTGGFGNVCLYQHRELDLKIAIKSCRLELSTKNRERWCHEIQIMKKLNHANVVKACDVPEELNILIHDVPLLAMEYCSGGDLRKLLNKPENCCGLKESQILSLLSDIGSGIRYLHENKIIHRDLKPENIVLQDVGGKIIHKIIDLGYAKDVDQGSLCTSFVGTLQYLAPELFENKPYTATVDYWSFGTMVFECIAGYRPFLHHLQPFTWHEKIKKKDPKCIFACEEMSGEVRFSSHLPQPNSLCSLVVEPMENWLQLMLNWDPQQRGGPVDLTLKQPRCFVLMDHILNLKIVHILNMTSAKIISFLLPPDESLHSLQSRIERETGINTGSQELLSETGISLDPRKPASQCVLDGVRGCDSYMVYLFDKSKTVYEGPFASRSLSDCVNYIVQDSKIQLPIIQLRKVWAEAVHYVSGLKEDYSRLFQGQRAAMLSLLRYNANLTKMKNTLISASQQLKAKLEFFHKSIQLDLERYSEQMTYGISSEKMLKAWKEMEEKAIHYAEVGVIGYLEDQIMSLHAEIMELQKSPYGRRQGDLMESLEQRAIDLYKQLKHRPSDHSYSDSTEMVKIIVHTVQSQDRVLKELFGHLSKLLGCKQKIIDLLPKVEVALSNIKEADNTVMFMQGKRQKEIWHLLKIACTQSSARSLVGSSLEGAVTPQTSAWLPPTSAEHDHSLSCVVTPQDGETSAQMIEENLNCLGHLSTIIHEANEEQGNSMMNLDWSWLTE
Text: as §1

[5] = target: diverse set of kinases (Homo sapiens, UniProt P00519, T315I); test: as above; assay type: biochemical; conditions: kinase ABL1; read-out: IC50 ABL1(T31SI)
Text: as §1

[6] = target: T3, diverse set of kinases (Homo sapiens, UniProt O14920); test: as above; assay type: biochemical; conditions: kinase IKKb
T3 construct: IC50 IKKb; other: kinase IKKb
T3 sequence (O14920 1-756): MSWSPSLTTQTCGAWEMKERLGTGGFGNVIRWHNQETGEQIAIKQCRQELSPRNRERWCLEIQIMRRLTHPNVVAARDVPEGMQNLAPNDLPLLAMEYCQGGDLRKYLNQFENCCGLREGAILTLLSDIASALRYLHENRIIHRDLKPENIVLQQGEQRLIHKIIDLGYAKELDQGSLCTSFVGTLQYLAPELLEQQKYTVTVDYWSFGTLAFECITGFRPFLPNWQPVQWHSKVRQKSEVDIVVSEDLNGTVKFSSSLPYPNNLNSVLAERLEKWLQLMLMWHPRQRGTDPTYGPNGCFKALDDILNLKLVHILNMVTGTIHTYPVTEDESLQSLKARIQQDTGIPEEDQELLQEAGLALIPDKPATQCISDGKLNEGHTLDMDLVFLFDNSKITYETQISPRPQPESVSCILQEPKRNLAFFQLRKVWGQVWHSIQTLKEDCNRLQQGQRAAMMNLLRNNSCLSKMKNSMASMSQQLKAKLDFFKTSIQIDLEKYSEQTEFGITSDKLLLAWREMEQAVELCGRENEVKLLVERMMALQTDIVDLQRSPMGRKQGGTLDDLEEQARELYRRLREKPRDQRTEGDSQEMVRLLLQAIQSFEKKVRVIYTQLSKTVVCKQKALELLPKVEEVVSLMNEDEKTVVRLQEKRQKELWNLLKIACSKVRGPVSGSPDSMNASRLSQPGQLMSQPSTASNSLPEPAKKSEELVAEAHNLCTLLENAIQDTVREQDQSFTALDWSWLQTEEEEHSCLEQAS
Text: as §1

[7] = target: T4, diverse set of kinases (Homo sapiens, UniProt P24941); test: as above; assay type: biochemical; conditions: kinase CDK2
T4 construct: IC50 CDK2; other: kinase CDK2
Text: as §1

| Structure (SMILES) | concentration at 3 h [1] | pIC50 [2] | pIC50 [3] | pIC50 [4] | pIC50 [5] | pIC50 [6] | pIC50 [7] |
| --- | --- | --- | --- | --- | --- | --- | --- |
| COc1ccc(Nc2ccc3ncc(-c4cc5ccccc5s4)n3n2)cc1OC [Compound 12, 3-(benzo[b]thiophen-2-yl)-N-(3,4-dimethoxyphenyl)imidazo[1,2-b]pyridazin-6-amine] | 1280 ng/g | 6.30 to 7.00 | < 5.00 | < 5.00 | < 5.00 | < 5.00 | 4.71 |
| COc1ccc(Nc2ccc3ncc(-c4cc5cc(OC)c(OC)cc5s4)n3n2)cc1OC [Compound 67, 3-(5,6-dimethoxybenzo[b]thiophen-2-yl)-N-(3,4-dimethoxyphenyl)imidazo[1,2-b]pyridazin-6-amine] | 566 ng/g | > 7.00 | < 5.00 | < 5.00 | < 5.00 | < 5.00 | < 5.00 |
| O[C@H]1CC[C@H](Nc2ccc3ncc(-c4cc5ccccc5s4)n3n2)CC1 [Compound 105, trans-4-(3-(benzo[b]thiophen-2-yl)imidazo[1,2-b]pyridazin-6-ylamino)cyclohexanol] | – | 6.30 to 7.00 | < 5.00 | < 5.00 | < 5.00 | < 5.00 | 5.99 |
| COc1cc2cc(-c3cnc4ccc(N[C@H]5CC[C@H](O)CC5)nn34)sc2cc1OC [Compound 169, trans-4-(3-(5,6-dimethoxybenzo[b]thiophen-2-yl)imidazo[1,2-b]pyridazin-6-ylamino)cyclohexanol] | – | > 7.00 | < 5.00 | < 5.00 | < 5.00 | < 5.00 | 5.08 |
| COc1cccc2cc(-c3cnc4ccc(N[C@H]5CC[C@H](O)CC5)nn34)sc12 [Compound 170, trans-4-(3-(7-methoxybenzo[b]thiophen-2-yl)imidazo[1,2-b]pyridazin-6-ylamino)cyclohexanol] | – | > 7.00 | < 5.00 | < 5.00 | < 5.00 | < 5.00 | < 5.00 |
| COc1cc2cc(-c3cnc4ccc(N(C)[C@H]5CC[C@H](OC)CC5)nn34)sc2cc1OC [Compound 175, 3-(5,6-dimethoxybenzo[b]thiophen-2-yl)-N-(trans-4-methoxycyclohexyl)-N-methylimidazo[1,2-b]pyridazin-6-amine] | 1880 ng/g | > 7.00 | – | – | – | – | – |
| COc1ccc(Nc2ccc3ncc(-c4cc5cncc(OC)c5s4)n3n2)cc1OC [Compound 210, N-(3,4-dimethoxyphenyl)-3-(7-methoxythieno[3,2-c]pyridin-2-yl)imidazo[1,2-b]pyridazin-6-amine] | – | > 5.30 | – | – | – | – | – |
| COc1ccc(Nc2ccc3ncc(-c4cc5cncc(O)c5s4)n3n2)cc1OC [Compound 211, 2-(6-(3,4-dimethoxyphenylamino)imidazo[1,2-b]pyridazin-3-yl)thieno[3,2-c]pyridin-7-ol] | – | > 5.30 | – | – | – | – | – |
| COc1ccc(N(C)c2ccc3ncc(-c4cc5cncc(OC)c5s4)n3n2)cc1OC [Compound 212, N-(3,4-dimethoxyphenyl)-3-(7-methoxythieno[3,2-c]pyridin-2-yl)-N-methylimidazo[1,2-b]pyridazin-6-amine] | – | > 5.30 | – | – | – | – | – |
| COc1ccc(Nc2ccc3ncc(-c4cc5cncc(C)c5s4)n3n2)cc1OC [Compound 214, N-(3,4-dimethoxyphenyl)-3-(7-methylthieno[3,2-c]pyridin-2-yl)imidazo[1,2-b]pyridazin-6-amine] | – | 6.30 to 7.00 | – | – | – | – | – |
| COc1cncc2cc(-c3cnc4ccc(N[C@H]5CC[C@H](OC)CC5)nn34)sc12 [Compound 217] | – | 6.30 to 7.00 | – | – | – | – | – |
| COc1ccc(Nc2ccc3ncc(-c4cc5ccncc5s4)n3n2)cc1OC [Compound 218, N-(3,4-dimethoxyphenyl)-3-(thieno[2,3-c]pyridin-2-yl)imidazo[1,2-b]pyridazin-6-amine] | – | > 7.00 | – | – | – | – | – |

Results, then the compound that gave them:

| concentration at 3 h [1] | pIC50 [2] | pIC50 [3] | pIC50 [4] | pIC50 [5] | pIC50 [6] | pIC50 [7] | Structure (SMILES) |
| --- | --- | --- | --- | --- | --- | --- | --- |
| – | > 7.00 | – | – | – | – | – | COc1cncc2cc(-c3cnc4ccc(N[C@H]5CC[C@H](O)CC5)nn34)sc12 [Compound 213, trans-4-(3-(7-methoxythieno[3,2-c]pyridin-2-yl)imidazo[1,2-b]pyridazin-6-ylamino)cyclohexanol] |
| – | > 7.00 | – | – | – | – | – | Cc1cncc2cc(-c3cnc4ccc(N[C@H]5CC[C@H](O)CC5)nn34)sc12 [Compound 215, trans-4-(3-(7-methylthieno[3,2-c]pyridin-2-yl)imidazo[1,2-b]pyridazin-6-ylamino)cyclohexanol] |
| – | 6.30 to 7.00 | – | – | – | – | – | CO[C@H]1CC[C@H](Nc2ccc3ncc(-c4cc5cncc(C)c5s4)n3n2)CC1 [Compound 216] |
| – | > 5.30 | – | – | – | – | – | O[C@H]1CC[C@H](Nc2ccc3ncc(-c4cc5ccncc5s4)n3n2)CC1 [Compound 219, trans-4-(3-(thieno[2,3-c]pyridin-2-yl)imidazo[1,2-b]pyridazin-6-ylamino)cyclohexanol] |
| – | 6.30 to 7.00 | – | – | – | – | – | CO[C@H]1CC[C@H](N(C)c2ccc3ncc(-c4cc5cncc(C)c5s4)n3n2)CC1 [Compound 220, N-((1r,4r)-4-methoxycyclohexyl)-N-methyl-3-(7-methylthieno[3,2-c]pyridin-2-yl)imidazo[1,2-b]pyridazin-6-amine] |
| – | 6.30 to 7.00 | – | – | – | – | – | Cc1cncc2cc(-c3cnc4ccc(N(C)[C@H]5CC[C@H](O)CC5)nn34)sc12 [Compound 221, trans-4-(N-methyl-N-(3-(7-methylthieno[3,2-c]pyridin-2-yl)imidazo[1,2-b]pyridazin-6-yl)amino)cyclohexanol] |
